The values below come from patent US7294643B2, “UK-1 analogues: methods of preparation and use” (Board of Regents, The University of Texas System, priority 2002, dated 2007).

Where two headings read alike, the source gives them in different places. Some results are limits rather than exact numbers.

The nature of data set [1]: alamarBlue cytotoxicity, range over three cell lines. Format: cell-based. Conditions: human; range of concentrations required to inhibit growth of MCF-7, HT-29, and PC-3 cells by 50%. On the procedure:
(§1) Cytotoxicity Assays. Cell culture cytotoxicity assays were performed using the. alamarBlue method, as described by Ahmed et al., J. Immun. Methods 1994, 170, 211-224, which is incorporated herein by reference. Briefly, aliquots of 100 μL of cell suspension (1.0-2.5×10^3 cells) was placed in 96-well microtiter plates in an atmosphere of 5% CO2 at 37° C. After 24 hours, 100 μL of culture medium and 2 μL of compound in vehicle (culture media with 40% pyridine) or vehicle alone were added, and the plates incubated an additional 72 hours. The final pyridine concentration in all cases was 0.4%; at this pyridine concentration there was no affect on the growth of cells compared to cells in culture media without added pyridine. […] After the culture media had been removed from each well, 200 μL of fresh media and 20 μL of 90% alamarBlue reagent were added, followed by an additional 6 h incubation. The fluorescent intensity was measured using a Spectrafluor Plus plate reader with excitation at 530 nm and emission at 590 nm. Results are reported as IC50 values, the average concentration required to produce a decrease of fluorescent intensity of 50% relative to vehicle-treated controls in two separate determinations.

For data set [2], the system named is double-stranded DNA oligonucleotide. In words: DNA binding by ESI-MS. On the set-up: key: MetalDepend.: all ligand-DNA complex ions also contained a metal ion.; None: no ligand-DNA complex ions observed.; MetalIndepend.: ligand-DNA and ligand-DNA-metal ion complex ions observed. Conditions: ligand-DNA complex ions, presence or absence of added NiCl2.
The subject of data set [3] is methicillin-resistant S. aureus ATCC 43300. In words: Antimicrobial bioassay, methicillin-resistant S. aureus. The class given is cell-based, Staphylococcus aureus. Conditions: Staphylococcus aureus, ATCC43300. On the procedure: (§2) Antimicrobial Bioassay: Staphylococcus aureus ATCC 29213 and methicillin-resistant S. aureus ATCC 43300 (MRS) were obtained from the American Type Culture Collection (Rockville, Md.) and stored on agar slants at 4° C. until needed. Susceptibility testing was performed using a modified version of the NCCLS methods: “Methods for Dilution Antimicrobial Susceptibility Tests for Bacteria that Grow Aerobically,” M7-A4, Vol. 17, No. 2, NCCLS, (1997) and “Reference Method for Broth Dilution Antifungal Susceptibility Testing of Yeasts; Approved Standard,” M27-A, Vol. 17, No. 9, NCCLS, (1997), both of which are incorporated herein by reference. Microorganisms were subcultured prior to the assay by suspending cells from the slant in Eugon broth (BBL, Maryland) and incubating for 24 hours at 37° C. Inocula were prepared by diluting the subcultured organism in its incubation broth after comparison to the 0.5 McFarland Standard (a BaSO4 suspension) to afford final inocula ranges of S. aureus: 1.0-5.0×10^5 and MRS: 0.2-6.0×10^5 CFU/ml. Test compounds were dissolved in DMSO, serially-diluted using normal saline, and transferred in duplicate to 96 well flat-bottomed microtiter plates. The microbial inocula were added to the samples to achieve a final volume of 200 μl and final compound concentrations starting with 50 μg/ml. Drug [Ciprofloxacin (ICN Biomedicals, Ohio)] as well as growth and blank (media only) controls were added to each test plate. Plates were read at 630 nm using the EL-340 Biokinetics Reader (Bio-Tek Instruments, Vermont) prior to and after incubation at 37° C. for 24 hours. Percent growth was calculated and plotted versus concentration to afford the IC50, or sample concentration that affords 50% growth of the organism relative to controls.

Data set [4] relates to Staphylococcus aureus ATCC 29213. The experiment in a line: Antimicrobial bioassay, S. aureus. Format: cell-based. To be noted: Staphylococcus aureus, ATCC29213. As to the method:
as §2

The nature of data set [5]: alamarBlue cytotoxicity, range over four cell lines. To be noted: human. Format: cell-based. As to the method:
as §1, with “hours.” for “hours. The final pyridine concentration in all cases was 0.4%; at this pyridine concentration there was no affect on the growth of cells compared to cells in culture media without added pyridine.”, “nm.” for “nm. Results are reported as IC50 values, the average concentration required to produce a decrease of fluorescent intensity of 50% relative to vehicle-treated controls in two separate determinations.”
(Resazurin is reduced to fluorescent resorufin, in cell work by metabolically active cells.)

Another data set relates to MCF-7 cells. The experiment in a line: alamarBlue cytotoxicity assay, MCF-7. Format: cell-based. Conditions: Homo sapiens, MCF7; MCF-7, alamarBlue, 72 h. On the procedure:
as §1

A short description of data set [6]: Metal ion binding by continuous variation, Mg2+. To be noted: for Association constant for metal ion binding: Mg^2+, methanol, 1:1 complex. On the procedure: (§3) Previous work indicated the metal ion binding mechanism of UK-1, so the method of continuous variation was used to determine the ability of selected UK-1analogues to bind a variety of metal ions. Methanolic solutions of UK-1 or UK-1 analogues and metal ion salts [Ca(NO3)2, Mg(NO3)2, Zn(NO3)2, or Fe(NO3)3] at various molar ratios, and 20 μM combined total concentration, were prepared and the absorbance at 418 nm was determined. […] Compound 2.1 does bind with Ca^2+ and Zn^2+ better than UK-1.
(§4) Continuous variation plots. A 100 μM solution of UK-1 or analogue and 100 AM solutions of Ca(NO3)2, Mg(NO3)2, Zn(NO3)2, or Fe(NO3)3 were prepared in methanol. From these stock solutions, 15 samples (1 mL) of varying mole fraction of the metal ion were prepared at a constant, combined concentration of 20 μM for the ligand and the metal ion. The change in absorbance was monitored from 500 to 200 nm for each sample using as a reference a 1 mL solution containing the same concentration of ligand as the sample being measured but without the metal ion. The maximum absorbance change was typically around 418 nm but varied somewhat for each metal ion. The absorbance at 418 nm was plotted as a function of the mole fraction of the metal ion and the maximum absorbance change was determined. The absorbance of a sample containing the metal ion concentration corresponding to this maximum change and a 15 fold excess of metal ion at this ligand concentration, subtracted from a reference containing the same concentration of ligand but no metal ion was used to normalize the curve and obtain the conditional formation constant as described in the paper to Likussar, W.; Boltz, D. F. Anal. Chem. 1971, 43, 1265-1272, which is incorporated herein by reference.

The next data set concerns PC-3 cells. The experiment in a line: alamarBlue cytotoxicity assay, PC-3. The class given is cell-based, human. Conditions: Homo sapiens, PC-3, 72 h, PC-3, alamarBlue. On the procedure:
as §1

The next data set has as its system HT-29 cells. The experiment in a line: alamarBlue cytotoxicity assay, HT-29. The class given is cell-based. To be noted: Homo sapiens; HT-29, alamarBlue, 72 h. On the procedure: as §1
Data set [7] can be described thus: Metal ion binding by continuous variation, Fe3+. Conditions: Fe^3+, methanol, 1:1 complex. On the procedure:
as §3, §4

Another data set deals with HL60 cells. In words: alamarBlue cytotoxicity assay, HL60. Format: cell-based, human. Conditions: Homo sapiens. On the procedure:
as §1

Data set [8] can be described thus: Metal ion binding by continuous variation, Zn2+. To be noted: for Association constant for metal ion binding: Zn^2+, methanol, 1:1 complex. On the procedure: as §3, §4
Data set [9] can be described thus: Metal ion binding by continuous variation, Ca2+. To be noted: Ca^2+, methanol, 1:1 complex. On the procedure: as §3, §4
Data set [10] has as its system gram-positive or gram negative bacteria. Conditions: cited from earlier work.
Another data set relates to yeast, or fungi. Conditions: cited from earlier work.
In another data set the test system is Cryptococcus neoformans. In words: Antimicrobial bioassay, Cryptococcus neoformans. Format: cell-based.
The subject of a further data set is Pseudomonas aeruginosa. In words: Antimicrobial bioassay, P. aeruginosa. The class given is cell-based. Conditions: P. aeruginosa.
For another data set, the system named is Candida albicans. In words: Antimicrobial bioassay, Candida albicans. The class given is cell-based.
The mark [11] stands for this setting: Methacilline-resistant Staph. Aureus, growth inhibited by 50%, read-out: Staph. aureus IC50.
Where [12] appears, read: 50% growth of test organism, NA = no activity observed at concentrations up to 50 μg/mL, read-out: Antibacterial IC50 S. aureus.
Where [13] appears, read: 50% growth of test organism, NA = no activity observed at concentrations up to 50 μg/mL, read-out: Antibacterial IC50 Meth-resist S. aureus.

Broadly, the IC50 is the concentration that gives 50% inhibition. Take `Oc1ccccc1-c1nc2ccccc2o1` [drawing 10]: the IC50 at 72 h in data set [1] is > 100 µM. For the same compound, in [2], the “DNA-Binding ESI-MS” value is on record as “None^e”. The IC50 in data set [3] (setting [11]) is > 50 µg/mL.
On to `O=C(O)c1cccc2oc(-c3ccccc3OCc3ccccc3)nc12` [Compound 2.6, 2-[2-(benzyloxy)phenyl]-1,3-benzoxazole-4-carboxylic acid], for which the IC50 at 72 h in [1] and in data set [5] was > 100 µM in each case. The “DNA-Binding ESI-MS” value in data set [2] was “MetalIndepend.^f”. The 50% inhibitory concentration (IC50) in [4] (setting [12]) worked out at 43 µM; in [3] (setting [13]), 29 µM; in data set [3] (setting [11]) it was 29 µg/mL.
In the case of `O=C(O)c1cccc2[nH]c(-c3ccccc3OCc3ccccc3)nc12` [Compound 2.9, 2-[2-(benzyloxy)phenyl]-1H-benzimidazole-4-carboxylic acid], the IC50 in data set [4] (setting [12]) and in [3] (setting [13]) was 102 µM in each case. Moreover, the IC50 at 72 h in data set [5] was > 100 µM.
With `COC(=O)c1cccc2oc(-c3ccccc3OCc3ccccc3)nc12` [Compound 2.5, Methyl 2-[2-(benzyloxy)phenyl]-1,3-benzoxazole-4-carboxylate], the IC50 at 72 h in data set [5] is > 100 µM.
Regarding `COC(=O)c1cccc2[nH]c(-c3cccc4oc(-c5ccccc5O)nc34)nc12` [Compound 2.1, Methyl 2-[2-(2-hydroxyphenyl)-1,3-benzoxazol-4-yl]-1H-benz imidazole-4-carboxylate], the IC50 in the data set with MCF-7 cells was > 100 µM; with PC-3 cells it was > 100 µM; with HT-29 cells, > 100 µM; with HL60 cells (HL-60, 72 h, HL60, alamarBlue, 72 h) it was 70 µM. Besides, the “Association constant for metal ion binding” value was determined as 40000 M⁻¹ in data set [6], 10000 M⁻¹ in data set [7], 3.2e+06 M⁻¹ in data set [8] and 100000 M⁻¹ in data set [9]. In addition, the IC50 at 72 h in data set [5] is ≥ 70 µM.
Take `COC(=O)c1cccc2oc(-c3cccc4oc(-c5ccccc5OC)nc34)nc12` [MUK-1]: the “activity against Gram-positive and Gram-negative bacteria” value in data set [10] is recorded as “have shown activity”. In the data set with yeast, or fungi, the “activity against yeast and filamentous fungi” value is recorded as “active”.
For the compound `O=C(O)c1cn(C2CC2)c2cc(N3CCNCC3)c(F)cc2c1=O` [Ciprofloxacin], in data set [1], the IC50 at 72 h was > 100 µM. Moreover, the “DNA-Binding ESI-MS” value in data set [2] is recorded as “MetalIndepend.^f”. The results for the 50% inhibitory concentration (IC50) in [4] (setting [12]), in [3] (setting [13]) and in [3] (setting [11]) were 0.45 µM, 0.45 µM and 0.45 µg/mL, respectively.
As for `O=C(O)c1cccc2oc(-c3cccc4oc(-c5ccccc5O)nc34)nc12` [DMUK-1], the “activity against Gram-positive and Gram-negative bacteria” value in data set [10] is given as “have shown activity”.
Consider `Oc1ccccc1-c1nc2ccccc2o1` [Compound 2.17, 2-(2′-hydroxyphenyl)benzoxazole], for which the “Mg^2+ ion complexation” value in data set [6] (result in words) was “does not appear to complex Mg^2+ ions”. Further, the IC50 at 72 h in data set [5] is > 100 µM. In addition, in data set [8] (result in words), the “Zn^2+ ion complexation” value is given as “does appear to form complexes with Zn^2+”.
Take `COC(=O)c1cccc2nc(-c3ccccc3O)oc12` [Compound 2.16, Methyl 2-(2-Hydroxy-phenyl)-benzooxazole-7-carboxylate]: in data set [5], the 50% inhibitory concentration (IC50) at 72 h was > 100 µM.
With `COC(=O)c1cccc2oc(-c3ccccc3O)nc12` [Compound 2.13, Methyl 2-(2-hydroxyphenyl)-benzoxazole-4-carboxylate], the IC50 in the data set on MCF-7 cells is 1.5 µM; in the data set with Cryptococcus neoformans, > 50 µg/mL; in data set [4] (S. aureus, read-out: IC50) it was > 50 µg/mL; in the data set on PC-3 cells, 0.88 µM; with HT-29 cells it was 9.1 µM; in data set [3] (setting [11]), > 50 µg/mL. Besides, the IC50 was 5.7 µM in the data set on HL60 cells (HL-60, HL60); > 50 µg/mL in the data set with Pseudomonas aeruginosa; > 50 µg/mL with Candida albicans. Besides, the “DNA-Binding ESI-MS” value in data set [2] is on record as “MetalDepend.^d”. Further, the “Association constant for metal ion binding” value was 320000 M⁻¹ in data set [6], 7900 M⁻¹ in [7], 1.3e+06 M⁻¹ in [8] and 6300 M⁻¹ in data set [9]. In addition, the IC50 at 72 h in data set [5] lay within 0.88 to 9.1 µM.
